One experiment has as its system 429239-143-T-J1-PDC complex spheroid viability. Kind of experiment: Anticancer human tumor 429239-143-T-J1-PDC patient-derived small cell lung carcinoma cell line growth inhibition [POLQ]. To be noted: second compound 0.0316 µM; first compound 3.16 µM; stronger effect = lower value. In short, it runs like this: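 Growth inhibition in 3D: complex spheroids (tumor PDC, HUVEC, MSC) treated with POLQ inhibitor combinations; where Cmax unknown, highest tested concentration 10 microM, except SN-38 at 1 microM.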
Take `CCCS(=O)(=O)Nc1ccc(F)c(C(=O)c2c[nH]c3ncc(-c4ccc(Cl)cc4)cc23)c1F` + Cc1cccc(N(C)C(=O)C2C(O)CCN2c2nc(C)cc(C(F)(F)F)c2C#N)c1: the viability, T/C is 94%.

For `CNCc1ccc(-c2[nH]c3cc(F)cc4c3c2CCNC4=O)cc1` + Cc1cccc(N(C)C(=O)C2C(O)CCN2c2nc(C)cc(C(F)(F)F)c2C#N)c1, the viability, T/C was 51%.

`O=C(c1cc(Cc2n[nH]c(=O)c3ccccc23)ccc1F)N1CCN(C(=O)C2CC2)CC1` + Cc1cccc(N(C)C(=O)C2C(O)CCN2c2nc(C)cc(C(F)(F)F)c2C#N)c1: the viability, T/C is 28.9%.

The experiment is the same for the next values; noted with them: second compound 0.0316 µM; first compound 10 µM; stronger effect = lower value.
For the compound `CCCS(=O)(=O)Nc1ccc(F)c(C(=O)c2c[nH]c3ncc(-c4ccc(Cl)cc4)cc23)c1F` + Cc1cccc(N(C)C(=O)C2C(O)CCN2c2nc(C)cc(C(F)(F)F)c2C#N)c1, the viability, T/C was 81.7%.

Take `CNCc1ccc(-c2[nH]c3cc(F)cc4c3c2CCNC4=O)cc1` + Cc1cccc(N(C)C(=O)C2C(O)CCN2c2nc(C)cc(C(F)(F)F)c2C#N)c1: the viability, T/C was 21.1%.

On to `O=C(c1cc(Cc2n[nH]c(=O)c3ccccc23)ccc1F)N1CCN(C(=O)C2CC2)CC1` + Cc1cccc(N(C)C(=O)C2C(O)CCN2c2nc(C)cc(C(F)(F)F)c2C#N)c1, for which the viability, T/C is 19.9%.

The same experiment, now with this note: second compound 0.1 µM; first compound 0.00316 µM; stronger effect = lower value.
Regarding `C=CCn1c(=O)c2cnc(Nc3ccc(N4CCN(C)CC4)cc3)nc2n1-c1cccc(C(C)(C)O)n1` + Cc1cccc(N(C)C(=O)C2C(O)CCN2c2nc(C)cc(C(F)(F)F)c2C#N)c1, the viability, T/C was 105%.

The same experiment, now with this note: second compound 0.1 µM; first compound 0.01 µM; stronger effect = lower value.
On to `C=CCn1c(=O)c2cnc(Nc3ccc(N4CCN(C)CC4)cc3)nc2n1-c1cccc(C(C)(C)O)n1` + Cc1cccc(N(C)C(=O)C2C(O)CCN2c2nc(C)cc(C(F)(F)F)c2C#N)c1, for which the viability, T/C is 105%.

Still in this experiment, the particulars now being: second compound 0.1 µM; first compound 0.0316 µM; stronger effect = lower value.
Regarding `C=CCn1c(=O)c2cnc(Nc3ccc(N4CCN(C)CC4)cc3)nc2n1-c1cccc(C(C)(C)O)n1` + Cc1cccc(N(C)C(=O)C2C(O)CCN2c2nc(C)cc(C(F)(F)F)c2C#N)c1, the viability, T/C is 97.5%.

Consider `CCCS(=O)(=O)Nc1ccc(F)c(C(=O)c2c[nH]c3ncc(-c4ccc(Cl)cc4)cc23)c1F` + Cc1cccc(N(C)C(=O)C2C(O)CCN2c2nc(C)cc(C(F)(F)F)c2C#N)c1, for which the viability, T/C was 92.2%.

As to `CNCc1ccc(-c2[nH]c3cc(F)cc4c3c2CCNC4=O)cc1` + Cc1cccc(N(C)C(=O)C2C(O)CCN2c2nc(C)cc(C(F)(F)F)c2C#N)c1, the viability, T/C is 90.9%.

For `O=C(c1cc(Cc2n[nH]c(=O)c3ccccc23)ccc1F)N1CCN(C(=O)C2CC2)CC1` + Cc1cccc(N(C)C(=O)C2C(O)CCN2c2nc(C)cc(C(F)(F)F)c2C#N)c1, the viability, T/C is 85.1%.

The experiment is the same for the next values; noted with them: second compound 0.1 µM; first compound 0.1 µM; stronger effect = lower value.
`C=CCn1c(=O)c2cnc(Nc3ccc(N4CCN(C)CC4)cc3)nc2n1-c1cccc(C(C)(C)O)n1` + Cc1cccc(N(C)C(=O)C2C(O)CCN2c2nc(C)cc(C(F)(F)F)c2C#N)c1: the viability, T/C was 102%.

As to `CCCS(=O)(=O)Nc1ccc(F)c(C(=O)c2c[nH]c3ncc(-c4ccc(Cl)cc4)cc23)c1F` + Cc1cccc(N(C)C(=O)C2C(O)CCN2c2nc(C)cc(C(F)(F)F)c2C#N)c1, the viability, T/C is 89.9%.

In the case of `CNCc1ccc(-c2[nH]c3cc(F)cc4c3c2CCNC4=O)cc1` + Cc1cccc(N(C)C(=O)C2C(O)CCN2c2nc(C)cc(C(F)(F)F)c2C#N)c1, the viability, T/C was 92.7%.

Consider `O=C(c1cc(Cc2n[nH]c(=O)c3ccccc23)ccc1F)N1CCN(C(=O)C2CC2)CC1` + Cc1cccc(N(C)C(=O)C2C(O)CCN2c2nc(C)cc(C(F)(F)F)c2C#N)c1, for which the viability, T/C is 81.3%.

The same experiment, now with this note: second compound 0.1 µM; first compound 0.316 µM; stronger effect = lower value.
With `C=CCn1c(=O)c2cnc(Nc3ccc(N4CCN(C)CC4)cc3)nc2n1-c1cccc(C(C)(C)O)n1` + Cc1cccc(N(C)C(=O)C2C(O)CCN2c2nc(C)cc(C(F)(F)F)c2C#N)c1, the viability, T/C was 103%.

Regarding `CCCS(=O)(=O)Nc1ccc(F)c(C(=O)c2c[nH]c3ncc(-c4ccc(Cl)cc4)cc23)c1F` + Cc1cccc(N(C)C(=O)C2C(O)CCN2c2nc(C)cc(C(F)(F)F)c2C#N)c1, the viability, T/C is 89.4%.

For `CNCc1ccc(-c2[nH]c3cc(F)cc4c3c2CCNC4=O)cc1` + Cc1cccc(N(C)C(=O)C2C(O)CCN2c2nc(C)cc(C(F)(F)F)c2C#N)c1, the viability, T/C was 79.4%.

Turning to `O=C(c1cc(Cc2n[nH]c(=O)c3ccccc23)ccc1F)N1CCN(C(=O)C2CC2)CC1` + Cc1cccc(N(C)C(=O)C2C(O)CCN2c2nc(C)cc(C(F)(F)F)c2C#N)c1, the viability, T/C is 78%.

The experiment is the same for the next values; noted with them: second compound 0.1 µM; first compound 1 µM; stronger effect = lower value.
As to `C=CCn1c(=O)c2cnc(Nc3ccc(N4CCN(C)CC4)cc3)nc2n1-c1cccc(C(C)(C)O)n1` + Cc1cccc(N(C)C(=O)C2C(O)CCN2c2nc(C)cc(C(F)(F)F)c2C#N)c1, the viability, T/C is 16.1%.

Consider `CCCS(=O)(=O)Nc1ccc(F)c(C(=O)c2c[nH]c3ncc(-c4ccc(Cl)cc4)cc23)c1F` + Cc1cccc(N(C)C(=O)C2C(O)CCN2c2nc(C)cc(C(F)(F)F)c2C#N)c1, for which the viability, T/C is 97.2%.

As to `CNCc1ccc(-c2[nH]c3cc(F)cc4c3c2CCNC4=O)cc1` + Cc1cccc(N(C)C(=O)C2C(O)CCN2c2nc(C)cc(C(F)(F)F)c2C#N)c1, the viability, T/C is 66.2%.

For `O=C(c1cc(Cc2n[nH]c(=O)c3ccccc23)ccc1F)N1CCN(C(=O)C2CC2)CC1` + Cc1cccc(N(C)C(=O)C2C(O)CCN2c2nc(C)cc(C(F)(F)F)c2C#N)c1, the viability, T/C was 55.8%.

Still in this experiment, the particulars now being: second compound 0.1 µM; first compound 3.16 µM; stronger effect = lower value.
Regarding `CCCS(=O)(=O)Nc1ccc(F)c(C(=O)c2c[nH]c3ncc(-c4ccc(Cl)cc4)cc23)c1F` + Cc1cccc(N(C)C(=O)C2C(O)CCN2c2nc(C)cc(C(F)(F)F)c2C#N)c1, the viability, T/C was 93.6%.

Consider `CNCc1ccc(-c2[nH]c3cc(F)cc4c3c2CCNC4=O)cc1` + Cc1cccc(N(C)C(=O)C2C(O)CCN2c2nc(C)cc(C(F)(F)F)c2C#N)c1, for which the viability, T/C is 47.5%.

In the case of `O=C(c1cc(Cc2n[nH]c(=O)c3ccccc23)ccc1F)N1CCN(C(=O)C2CC2)CC1` + Cc1cccc(N(C)C(=O)C2C(O)CCN2c2nc(C)cc(C(F)(F)F)c2C#N)c1, the viability, T/C is 35.3%.

The experiment is the same for the next values; noted with them: second compound 0.1 µM; first compound 10 µM; stronger effect = lower value.
As for `CCCS(=O)(=O)Nc1ccc(F)c(C(=O)c2c[nH]c3ncc(-c4ccc(Cl)cc4)cc23)c1F` + Cc1cccc(N(C)C(=O)C2C(O)CCN2c2nc(C)cc(C(F)(F)F)c2C#N)c1, the viability, T/C is 82.8%.

As for `CNCc1ccc(-c2[nH]c3cc(F)cc4c3c2CCNC4=O)cc1` + Cc1cccc(N(C)C(=O)C2C(O)CCN2c2nc(C)cc(C(F)(F)F)c2C#N)c1, the viability, T/C was 19.7%.

For `O=C(c1cc(Cc2n[nH]c(=O)c3ccccc23)ccc1F)N1CCN(C(=O)C2CC2)CC1` + Cc1cccc(N(C)C(=O)C2C(O)CCN2c2nc(C)cc(C(F)(F)F)c2C#N)c1, the viability, T/C is 17.9%.

Still in this experiment, the particulars now being: second compound 0.316 µM; first compound 0.00316 µM; stronger effect = lower value.
Turning to `C=CCn1c(=O)c2cnc(Nc3ccc(N4CCN(C)CC4)cc3)nc2n1-c1cccc(C(C)(C)O)n1` + Cc1cccc(N(C)C(=O)C2C(O)CCN2c2nc(C)cc(C(F)(F)F)c2C#N)c1, the viability, T/C is 109%.

The same experiment, now with this note: second compound 0.316 µM; first compound 0.01 µM; stronger effect = lower value.
With `C=CCn1c(=O)c2cnc(Nc3ccc(N4CCN(C)CC4)cc3)nc2n1-c1cccc(C(C)(C)O)n1` + Cc1cccc(N(C)C(=O)C2C(O)CCN2c2nc(C)cc(C(F)(F)F)c2C#N)c1, the viability, T/C is 106%.

The experiment is the same for the next values; noted with them: second compound 0.316 µM; first compound 0.0316 µM; stronger effect = lower value.
In the case of `C=CCn1c(=O)c2cnc(Nc3ccc(N4CCN(C)CC4)cc3)nc2n1-c1cccc(C(C)(C)O)n1` + Cc1cccc(N(C)C(=O)C2C(O)CCN2c2nc(C)cc(C(F)(F)F)c2C#N)c1, the viability, T/C is 106%.

`CCCS(=O)(=O)Nc1ccc(F)c(C(=O)c2c[nH]c3ncc(-c4ccc(Cl)cc4)cc23)c1F` + Cc1cccc(N(C)C(=O)C2C(O)CCN2c2nc(C)cc(C(F)(F)F)c2C#N)c1: the viability, T/C was 99.5%.

For the compound `CNCc1ccc(-c2[nH]c3cc(F)cc4c3c2CCNC4=O)cc1` + Cc1cccc(N(C)C(=O)C2C(O)CCN2c2nc(C)cc(C(F)(F)F)c2C#N)c1, the viability, T/C is 97.8%.

Take `O=C(c1cc(Cc2n[nH]c(=O)c3ccccc23)ccc1F)N1CCN(C(=O)C2CC2)CC1` + Cc1cccc(N(C)C(=O)C2C(O)CCN2c2nc(C)cc(C(F)(F)F)c2C#N)c1: the viability, T/C was 94.2%.

The same experiment, now with this note: second compound 0.316 µM; first compound 0.1 µM; stronger effect = lower value.
`C=CCn1c(=O)c2cnc(Nc3ccc(N4CCN(C)CC4)cc3)nc2n1-c1cccc(C(C)(C)O)n1` + Cc1cccc(N(C)C(=O)C2C(O)CCN2c2nc(C)cc(C(F)(F)F)c2C#N)c1: the viability, T/C was 116%.

With `CCCS(=O)(=O)Nc1ccc(F)c(C(=O)c2c[nH]c3ncc(-c4ccc(Cl)cc4)cc23)c1F` + Cc1cccc(N(C)C(=O)C2C(O)CCN2c2nc(C)cc(C(F)(F)F)c2C#N)c1, the viability, T/C was 92.8%.

As to `CNCc1ccc(-c2[nH]c3cc(F)cc4c3c2CCNC4=O)cc1` + Cc1cccc(N(C)C(=O)C2C(O)CCN2c2nc(C)cc(C(F)(F)F)c2C#N)c1, the viability, T/C was 94.7%.

For the compound `O=C(c1cc(Cc2n[nH]c(=O)c3ccccc23)ccc1F)N1CCN(C(=O)C2CC2)CC1` + Cc1cccc(N(C)C(=O)C2C(O)CCN2c2nc(C)cc(C(F)(F)F)c2C#N)c1, the viability, T/C is 82.5%.

Still in this experiment, the particulars now being: second compound 0.316 µM; first compound 0.316 µM; stronger effect = lower value.
Turning to `C=CCn1c(=O)c2cnc(Nc3ccc(N4CCN(C)CC4)cc3)nc2n1-c1cccc(C(C)(C)O)n1` + Cc1cccc(N(C)C(=O)C2C(O)CCN2c2nc(C)cc(C(F)(F)F)c2C#N)c1, the viability, T/C is 91.1%.

Turning to `CCCS(=O)(=O)Nc1ccc(F)c(C(=O)c2c[nH]c3ncc(-c4ccc(Cl)cc4)cc23)c1F` + Cc1cccc(N(C)C(=O)C2C(O)CCN2c2nc(C)cc(C(F)(F)F)c2C#N)c1, the viability, T/C was 96.9%.

One may read the viability, T/C as the result in the treated group divided by that in the control group, in per cent.

Values taken from PubChem BioAssay AID1963845 (Molecular Pharmacology Branch, DTP, NCI, 2024).
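Further: luminescence signal used as surrogate measure of viable cells; spheroids exposed to compounds for seven days before readout; 100% = DMSO vehicle control viability as luminescence relative to vehicle.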
